Experimental data taken from patent US9428508B2, “2,4-diamino-6,7-dihydro-5H-pyrrolo[2,3]pyrimidine derivatives as FAK/Pyk2 inhibitors” (Centaurus BioPharma Co., Ltd., priority 2011, dated 2016).

Columns and labels:
[1] = target: FAK (Homo sapiens (Human), UniProt Q05397); test: Biochemical assay for FAK activity (LANCE TR-FRET, ULight-poly Glu,Ala,Tyr substrate); settings: GST-tagged FAK, 120 min reaction
Outline: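 GST-tagged FAK (2.5 nM working stock) with ULight-poly Glu,Ala,Tyr (666 nM stock) and ATP (33.3 μM stock) in Tris pH 7.5/MgCl2/DTT/CHAPS buffer with BSA, 120 min; EDTA-quenched. Phosphorylation read by TR-FRET with Eu-anti-phosphotyrosine (PY20) antibody after 60 min. Compounds tested as 12-point 3-fold dilutions.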

[2] = target: PYK2 (Homo sapiens (Human), UniProt Q14289); test: Biochemical assay for PYK2 activity (LANCE TR-FRET, ULight-poly Glu,Ala,Tyr substrate); settings: GST-tagged PYK2, 40 min reaction
Outline: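 GST-tagged human PYK2 (2 nM working stock) with ULight-poly Glu,Ala,Tyr (1:1:1) peptide (666 nM working stock) and ATP (46.6 μM working stock) in 40 mM Tris pH 7.5, MgCl2, 1 mM DTT, 1 mM CHAPS; 40 min reaction, EDTA quench. Phosphotyrosine read by LANCE Eu-anti-phosphotyrosine (PY20) TR-FRET after 60 min; 12-point 3-fold compound dilutions.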

FAK, sequence (Q05397 whole entry): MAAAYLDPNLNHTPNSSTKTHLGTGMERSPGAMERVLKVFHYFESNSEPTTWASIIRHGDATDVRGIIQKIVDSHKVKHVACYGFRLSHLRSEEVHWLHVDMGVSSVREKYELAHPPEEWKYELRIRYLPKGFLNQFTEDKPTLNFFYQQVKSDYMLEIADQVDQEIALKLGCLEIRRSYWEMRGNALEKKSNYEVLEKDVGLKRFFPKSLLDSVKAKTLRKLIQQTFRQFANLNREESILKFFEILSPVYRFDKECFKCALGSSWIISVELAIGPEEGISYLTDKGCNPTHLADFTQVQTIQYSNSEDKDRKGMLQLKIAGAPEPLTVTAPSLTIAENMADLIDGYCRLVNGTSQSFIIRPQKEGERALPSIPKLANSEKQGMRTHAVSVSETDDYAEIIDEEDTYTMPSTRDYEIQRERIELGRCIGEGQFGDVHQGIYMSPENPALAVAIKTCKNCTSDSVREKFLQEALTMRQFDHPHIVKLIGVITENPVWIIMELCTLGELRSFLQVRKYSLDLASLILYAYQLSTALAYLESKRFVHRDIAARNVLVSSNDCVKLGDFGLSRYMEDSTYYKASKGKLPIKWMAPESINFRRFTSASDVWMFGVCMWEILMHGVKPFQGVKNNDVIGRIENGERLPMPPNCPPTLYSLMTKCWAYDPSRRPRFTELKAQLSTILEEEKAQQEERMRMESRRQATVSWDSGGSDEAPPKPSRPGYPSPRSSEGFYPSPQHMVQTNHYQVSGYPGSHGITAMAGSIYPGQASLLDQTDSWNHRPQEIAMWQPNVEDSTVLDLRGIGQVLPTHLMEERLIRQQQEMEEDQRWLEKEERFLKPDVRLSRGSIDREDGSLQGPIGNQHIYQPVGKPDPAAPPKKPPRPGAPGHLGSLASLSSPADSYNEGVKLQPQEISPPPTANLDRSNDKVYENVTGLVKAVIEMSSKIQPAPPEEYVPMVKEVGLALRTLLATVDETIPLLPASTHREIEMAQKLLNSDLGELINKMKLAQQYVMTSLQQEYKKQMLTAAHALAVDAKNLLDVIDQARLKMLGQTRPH
PYK2, sequence (Q14289 whole entry): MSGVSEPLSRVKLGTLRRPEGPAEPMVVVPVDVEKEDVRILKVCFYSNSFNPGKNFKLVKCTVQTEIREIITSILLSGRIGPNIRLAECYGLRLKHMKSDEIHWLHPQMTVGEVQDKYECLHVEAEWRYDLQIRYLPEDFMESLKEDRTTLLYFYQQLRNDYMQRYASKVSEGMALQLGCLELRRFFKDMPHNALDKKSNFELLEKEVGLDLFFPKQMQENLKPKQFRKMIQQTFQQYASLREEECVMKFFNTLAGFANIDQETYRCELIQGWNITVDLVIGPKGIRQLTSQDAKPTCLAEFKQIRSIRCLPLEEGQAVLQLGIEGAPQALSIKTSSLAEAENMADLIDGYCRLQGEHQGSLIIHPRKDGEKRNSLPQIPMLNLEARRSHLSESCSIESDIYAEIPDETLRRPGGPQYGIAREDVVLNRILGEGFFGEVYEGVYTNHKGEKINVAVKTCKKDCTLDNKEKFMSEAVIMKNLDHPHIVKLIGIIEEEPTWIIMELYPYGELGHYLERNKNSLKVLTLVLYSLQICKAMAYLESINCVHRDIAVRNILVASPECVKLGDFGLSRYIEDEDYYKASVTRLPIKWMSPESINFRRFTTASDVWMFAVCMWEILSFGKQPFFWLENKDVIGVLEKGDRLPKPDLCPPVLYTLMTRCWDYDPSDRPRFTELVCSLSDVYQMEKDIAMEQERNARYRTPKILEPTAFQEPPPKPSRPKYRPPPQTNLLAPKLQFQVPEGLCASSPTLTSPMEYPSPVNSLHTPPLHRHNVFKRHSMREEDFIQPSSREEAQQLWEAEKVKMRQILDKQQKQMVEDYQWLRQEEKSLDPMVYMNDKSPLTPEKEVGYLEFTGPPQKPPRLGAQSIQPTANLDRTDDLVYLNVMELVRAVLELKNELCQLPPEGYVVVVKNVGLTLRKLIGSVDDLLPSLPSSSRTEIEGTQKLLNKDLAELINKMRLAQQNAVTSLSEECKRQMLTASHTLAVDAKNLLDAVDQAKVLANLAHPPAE

Compound | IC50 [1] [nM] | IC50 [2] [nM]
COc1cc(N2CCOCC2)ccc1Nc1nc2c(c(Nc3ccccc3S(=O)(=O)N(C)C)n1)CCN2 [Example 38, 2-(2-(2-methoxy-4-morpholinophenylamino)-6,7-dihydro-5H-pyrrolo[2,3-d]pyrimidin-4-ylamino)-N,N-dimethylbenzenesulfonamide] | < 50 | < 200
COc1cc(N2CCC(N3CCCCC3)CC2)ccc1Nc1nc2c(c(Nc3ccccc3S(=O)(=O)NC(C)C)n1)CCN2 [Example 92, 2-(2-(4-(1,4′-bipiperidin-1′-yl)-2-methoxyphenylamino)-6,7-dihydro-5H-pyrrolo[2,3-d]pyrimidin-4-ylamino)-N-isopropylbenzenesulfonamide] | < 20 | < 20
CC(C)NC(C)c1ccc(Nc2nc3c(c(Nc4ccccc4S(=O)(=O)NC(C)C)n2)CCN3)cc1 (stereo not shown) [Example 72, N-isopropyl-2-(2-(4-(1-(isopropylamino)ethyl)phenylamino)-6,7-dihydro-5H-pyrrolo[2,3-d]pyrimidin-4-ylamino)benzenesulfonamide] | < 20 | < 20
COc1cc(N2CCOCC2)ccc1Nc1nc2c(c(Nc3ccccc3S(=O)(=O)NC3CCCCC3)n1)CCN2 [Example 8, N-cyclohexyl-2-(2-(2-methoxy-4-morpholinophenylamino)-6,7-dihydro-5H-pyrrolo[2,3-d]pyrimidin-4-ylamino)benzenesulfonamide] | < 200 | < 500
Cc1csc(Nc2nc3c(c(Nc4ccccc4S(=O)(=O)NC(C)C)n2)CCN3)n1 [Example 91, N-isopropyl-2-(2-(4-methylthiazol-2-ylamino)-6,7-dihydro-5H-pyrrolo[2,3-d]pyrimidin-4-ylamino)benzenesulfonamide] | > 1000 | < 1000
COc1cc(N2CCOCC2)ccc1Nc1nc2c(c(Nc3cccc(C)n3)n1)C(C)(C)CN2 [Example 123, N^2-(2-methoxy-4-morpholinophenyl)-5,5-dimethyl-N^4-(6-methylpyridin-2-yl)-6,7-dihydro-5H-pyrrolo[2,3-d]pyrimidine-2,4-diamine] | < 200 | < 500
CCCCNS(=O)(=O)c1ccccc1Nc1nc(Nc2ccc(N3CCOCC3)cc2OC)nc2c1C(C)(C)CN2 [Example 110, N-butyl-2-(2-(2-methoxy-4-morpholinophenylamino)-5,5-dimethyl-6,7-dihydro-5H-pyrrolo[2,3-d]pyrimidin-4-ylamino)benzenesulfonamide] | < 20 | < 20
CCNS(=O)(=O)c1ccccc1Nc1nc(Nc2ccc(N3CCOCC3)cc2OC)nc2c1C1(CC1)CN2 [Example 139, N-ethyl-2-(2′-(2-methoxy-4-morpholinophenylamino)-6′,7′-dihydrospiro[cyclopropane-1,5′-pyrrolo[2,3-d]pyrimidine]-4′-ylamino)benzenesulfonamide] | < 20 | < 20
CCCNS(=O)(=O)c1ccccc1Nc1nc(Nc2ccc(N3CCOCC3)cc2OC)nc2c1CCN2 [Example 5, 2-(2-(2-methoxy-4-morpholinophenylamino)-6,7-dihydro-5H-pyrrolo[2,3-d]pyrimidin-4-ylamino)-N-propylbenzenesulfonamide] | < 20 | < 20
CNS(=O)(=O)c1ccccc1Nc1nc(Nc2cc(OC)c(OC)c(OC)c2)nc2c1C1(CC1)CN2 [Example 157, N-methyl-2-(2′-(3,4,5-trimethoxyphenylamino)-6′,7′-dihydrospiro[cyclopropane-1,5′-pyrrolo[2,3-d]pyrimidine]-4′-ylamino)benzenesulfonamide] | < 20 | < 20
COc1cc(N2CCOCC2)ccc1Nc1nc2c(c(Nc3ccccc3S(=O)(=O)NC(C)C)n1)C(C)(C)CN2 [Example 105, N-isopropyl-2-(2-(2-methoxy-4-morpholinophenylamino)-5,5-dimethyl-6,7-dihydro-5H-pyrrolo[2,3-d]pyrimidin-4-ylamino)benzenesulfonamide] | < 20 | < 20
Cc1cc(N2CCOCC2)ccc1Nc1nc2c(c(Nc3ccccc3S(=O)(=O)NC(C)C)n1)CCN2 [Example 66, N-isopropyl-2-(2-(2-methyl-4-morpholinophenylamino)-6,7-dihydro-5H-pyrrolo[2,3-d]pyrimidin-4-ylamino)benzenesulfonamide] | < 20 | < 50
CNC(=O)c1ccc(Nc2nc3c(c(Nc4ccccc4S(=O)(=O)NC(C)C)n2)CCN3)cc1 [Example 53, 4-(4-(2-(N-isopropylsulfamoyl)phenylamino)-6,7-dihydro-5H-pyrrolo[2,3-d]pyrimidin-2-ylamino)-N-methylbenzamide] | < 20 | < 20
CCC(C)NS(=O)(=O)c1ccccc1Nc1nc(Nc2ccc(N3CCOCC3)cc2OC)nc2c1C(C)(C)CN2 (stereo not shown) [Example 112, N-sec-butyl-2-(2-(2-methoxy-4-morpholinophenylamino)-5,5-dimethyl-6,7-dihydro-5H-pyrrolo[2,3-d]pyrimidin-4-ylamino)benzenesulfonamide] | < 20 | < 20
COc1cc(N2CCOCC2)ccc1Nc1nc2c(c(Nc3ccccc3S(=O)(=O)NC3CCC3)n1)C(C)(C)CN2 [Example 104, N-cyclobutyl-2-(2-(2-methoxy-4-morpholinophenylamino)-5,5-dimethyl-6,7-dihydro-5H-pyrrolo[2,3-d]pyrimidin-4-ylamino)benzenesulfonamide] | < 20 | < 20
COc1cc(N2CCOCC2)ccc1Nc1nc2c(c(Nc3ccccc3C(=O)N3CCCC3)n1)CCN2 [Example 3, (2-(2-(2-methoxy-4-morpholinophenylamino)-6,7-dihydro-5H-pyrrolo[2,3-d]pyrimidin-4-ylamino)phenyl)(pyrrolidin-1-yl)methanone] | > 1000 | > 1000
COc1cc(N2CCC(N3CCCC3)CC2)ccc1Nc1nc2c(c(Nc3ccccc3S(=O)(=O)NC(C)C)n1)CCN2 [Example 93, N-isopropyl-2-(2-(2-methoxy-4-(4-(pyrrolidin-1-yl)piperidin-1-yl)phenylamino)-6,7-dihydro-5H-pyrrolo[2,3-d]pyrimidin-4-ylamino)benzenesulfonamide] | < 20 | < 20
COc1cc(N2CCOCC2)ccc1Nc1nc2c(c(Nc3ccc(F)c(F)c3)n1)C1(CC1)CN2 [Example 153, N^4′-(3,4-difluorophenyl)-N^2′-(2-methoxy-4-morpholinophenyl)-6′,7′-dihydrospiro[cyclopropane-1,5′-pyrrolo[2,3-d]pyrimidine]-2′,4′-diamine] | < 200 | < 500
CCCNS(=O)(=O)c1ccccc1Nc1nc(Nc2ccc(N3CCOCC3)cc2OC)nc2c1C(C)CN2 (racemic) [Example 26, (±)-2-(2-(2-methoxy-4-morpholinophenylamino)-5-methyl-6,7-dihydro-5H-pyrrolo[2,3-d]pyrimidin-4-ylamino)-N-propylbenzenesulfonamide] | < 20 | < 20
CNC(=O)c1ccccc1Nc1nc(Nc2ccc(N3CCOCC3)c3c2OCCO3)nc2c1C(C)(C)CN2 [Example 129, 2-(5,5-dimethyl-2-(8-morpholino-2,3-dihydrobenzo[b][1,4]dioxin-5-ylamino)-6,7-dihydro-5H-pyrrolo[2,3-d]pyrimidin-4-ylamino)-N-methylbenzamide] | < 50 | < 100
COc1cc(N2CCOCC2)ccc1Nc1nc2c(c(Nc3ccccc3S(=O)(=O)NCC(C)C)n1)CCN2 [Example 45, N-isobutyl-2-(2-(2-methoxy-4-morpholinophenylamino)-6,7-dihydro-5H-pyrrolo[2,3-d]pyrimidin-4-ylamino)benzenesulfonamide] | < 100 | < 100
COc1cc(N2CCCC(O)C2)ccc1Nc1nc2c(c(Nc3ccccc3S(=O)(=O)NC(C)C)n1)CCN2 (stereo not shown) [Example 81, 2-(2-(4-(3-hydroxypiperidin-1-yl)-2-methoxyphenylamino)-6,7-dihydro-5H-pyrrolo[2,3-d]pyrimidin-4-ylamino)-N-isopropylbenzenesulfonamide] | < 20 | < 50
CNS(=O)(=O)c1ccccc1Nc1nc(Nc2ccc(N3CCOCC3)cc2OC)nc2c1C(C)(C)CN2 [Example 103, 2-(2-(2-methoxy-4-morpholinophenylamino)-5,5-dimethyl-6,7-dihydro-5H-pyrrolo[2,3-d]pyrimidin-4-ylamino)-N-methylbenzenesulfonamide] | < 20 | < 20
CC(C)NS(=O)(=O)c1ccccc1Nc1nc(Nc2ccc(C(=O)N3CCOCC3)cc2)nc2c1CCN2 [Example 65, N-isopropyl-2-(2-(4-(morpholine-4-carbonyl)phenylamino)-6,7-dihydro-5H-pyrrolo[2,3-d]pyrimidin-4-ylamino)benzenesulfonamide] | < 20 | < 20
COc1cc(N2CCOCC2)ccc1Nc1nc2c(c(Nc3ccccc3S(=O)(=O)NC(C)(C)C)n1)C1(CC1)CN2 [Example 136, N-tert-butyl-2-(2′-(2-methoxy-4-morpholinophenylamino)-6′,7′-dihydrospiro[cyclopropane-1,5′-pyrrolo[2,3-d]pyrimidine]-4′-ylamino)benzenesulfonamide] | < 20 | < 20
COc1cc(N2CCOCC2)ccc1Nc1nc2c(c(Nc3ccccc3S(=O)(=O)NC(C)C)n1)CCN2 [Example 40, N-isopropyl-2-(2-(2-methoxy-4-morpholinophenylamino)-6,7-dihydro-5H-pyrrolo[2,3-d]pyrimidin-4-ylamino)benzenesulfonamide] | < 20 | < 20
